# Results: patent US20040266766A1, “Selective urokinase inhibitors” (Wilex AG, priority 2001, published 2004)
# Where a name gives a salt, the structure may show the parent alone. Read-outs that look alike come from different tables or passages of the source.
# Legend:
# urokinase (uPA) = biological target: T1, urokinase (uPA) (Homo sapiens, UniProt P00749); assay: In vitro inhibition of urokinase (Ki according to Dixon, chromogenic substrate); type: biochemical
# T1 construct: purchased Calbiochem-Novabiochem GmbH, Bad Soden, Germany
# How it was run: (§1)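 Chromogenic read-out in 0.05 mol/l Tris, 0.154 mol/l NaCl, pH 8.0, with inhibitor, substrate (Pefachrome uPA, Pefachrome PL or Pefabloc TH) and protease, incubated 10 min at 30 °C. Absorbance at 405 nm was read after ca. 30 min (30 cycles). Ki was derived by Dixon linear regression.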
# Plasmin [1] = biological target: T2, Plasmin (Homo sapiens, UniProt P00747); assay: In vitro inhibition of plasmin (Ki according to Dixon); type: biochemical
# How it was run: as §1
# Thrombin [2] = biological target: T3, Thrombin (Homo sapiens, UniProt P00734); assay: In vitro inhibition of thrombin (Ki according to Dixon); type: biochemical
# How it was run: as §1
# PK = PK (Homo sapiens, UniProt P03952); assay: In vitro inhibition of PK (Ki); type: biochemical; details: summary table
# How it was run: as §1
# urokinase = biological target: T4, urokinase (Homo sapiens, UniProt P00749); assay: In vitro inhibition of urokinase by WX-508 (Example 15); type: biochemical
# T4 construct: purchased Calbiochem-Novabiochem GmbH, Bad Soden, Germany
# Experimental: (§2) In order to determine the uPA inhibitory activity, 200 μl Tris-buffer (0.05 mol/l containing the inhibitor, 0.154 mol/l NaCl, pH 8.0), 25 μl substrate (Pefachrome uPA or BZ-O-Ala-Gly-Arg-pNA in H2O; Pentapharm Ltd., Basle, Switzerland) and 50 μl urokinase (Calbiochem-Novabiochem GmbH, Bad Soden, Germany) or another appropriate protease are incubated at 30° C. After ca. 30 minutes and 30 cycles the absorption is determined at 405 nm by means of a microplate reader (Mediators PHL, Aureon Biosystems, Vienna, Austria). The Ki values were determined according to Dixon by linear regression using a computer program.
# Plasmin [3] = biological target: T2, Plasmin; assay: In vitro inhibition of plasmin by WX-508 (Example 15); type: biochemical
# Experimental: as §2
# Thrombin [4] = biological target: T3, Thrombin; assay: In vitro inhibition of thrombin by WX-508 (Example 15); type: biochemical
# Experimental: as §2
# Caco-2 cell monolayers = assay: Caco-assay: transport across Caco-2 cell monolayers; type: in vitro ADME, human; details: for % amount in the basolateral compartment: 10 μg/ml apical, four hours; for Caco-2 assay % basolateral: first series
# How it was run: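 Caco-2 monolayers grown three weeks on 0.4 μm polycarbonate filters; compounds applied apically at 10 μg/ml in HBSS/30 mM HEPES pH 7.2 for 4 h. Apical and basolateral samples quantified by scintillation counting, integrity checked by TEER; triplicate experiments.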
# [5] = Oral bioavailability and plasma kinetics in mice (serum concentration); type: in vivo, Balb/c mice; details: mouse; for concentration at 20 min / concentration at 40 min / concentration at 60 min: female, Balb/c, serum, po; for concentration at 20 min: sample at 20 minutes; for concentration at 40 min: sample at 40 minutes; for concentration at 60 min: sample at 60 minutes; for c in the serum 1st analysis / c in the serum 2nd analysis: 10 mg/kg i.v.
# [6] = 30 mg/kg, 30 mg/kg oral, read-out: c in the serum 1st analysis
# [7] = 30 mg/kg, 30 mg/kg oral, read-out: c in the serum 2nd analysis
# [8] = 300 mg/kg, 300 mg/kg oral, read-out: c in the serum 1st analysis
# [9] = 300 mg/kg, 300 mg/kg oral, read-out: c in the serum 2nd analysis
# T2 sequence (P00747 581-810 limits assumed, species assumed): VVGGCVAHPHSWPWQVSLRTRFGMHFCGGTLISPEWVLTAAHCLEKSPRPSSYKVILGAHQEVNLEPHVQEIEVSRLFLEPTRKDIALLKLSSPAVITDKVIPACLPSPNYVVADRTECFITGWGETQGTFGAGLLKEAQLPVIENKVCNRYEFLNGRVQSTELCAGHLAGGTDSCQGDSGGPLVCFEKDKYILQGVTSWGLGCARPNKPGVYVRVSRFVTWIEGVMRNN
# T2 sequence (P00747 97-580 partner limits assumed, species assumed): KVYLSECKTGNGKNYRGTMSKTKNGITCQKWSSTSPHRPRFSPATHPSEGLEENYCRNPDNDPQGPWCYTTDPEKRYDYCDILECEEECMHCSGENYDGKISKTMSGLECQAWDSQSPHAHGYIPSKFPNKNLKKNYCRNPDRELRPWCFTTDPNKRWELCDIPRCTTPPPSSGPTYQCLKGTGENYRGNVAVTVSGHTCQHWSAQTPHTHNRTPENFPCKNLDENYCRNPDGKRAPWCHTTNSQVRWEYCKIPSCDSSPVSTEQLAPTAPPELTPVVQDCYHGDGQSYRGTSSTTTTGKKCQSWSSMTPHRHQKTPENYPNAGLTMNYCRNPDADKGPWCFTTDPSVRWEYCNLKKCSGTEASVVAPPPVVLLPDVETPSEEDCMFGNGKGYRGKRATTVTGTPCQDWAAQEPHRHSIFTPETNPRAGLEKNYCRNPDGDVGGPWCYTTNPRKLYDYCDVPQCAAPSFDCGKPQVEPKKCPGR
# Sequence of PK (P03952 20-638): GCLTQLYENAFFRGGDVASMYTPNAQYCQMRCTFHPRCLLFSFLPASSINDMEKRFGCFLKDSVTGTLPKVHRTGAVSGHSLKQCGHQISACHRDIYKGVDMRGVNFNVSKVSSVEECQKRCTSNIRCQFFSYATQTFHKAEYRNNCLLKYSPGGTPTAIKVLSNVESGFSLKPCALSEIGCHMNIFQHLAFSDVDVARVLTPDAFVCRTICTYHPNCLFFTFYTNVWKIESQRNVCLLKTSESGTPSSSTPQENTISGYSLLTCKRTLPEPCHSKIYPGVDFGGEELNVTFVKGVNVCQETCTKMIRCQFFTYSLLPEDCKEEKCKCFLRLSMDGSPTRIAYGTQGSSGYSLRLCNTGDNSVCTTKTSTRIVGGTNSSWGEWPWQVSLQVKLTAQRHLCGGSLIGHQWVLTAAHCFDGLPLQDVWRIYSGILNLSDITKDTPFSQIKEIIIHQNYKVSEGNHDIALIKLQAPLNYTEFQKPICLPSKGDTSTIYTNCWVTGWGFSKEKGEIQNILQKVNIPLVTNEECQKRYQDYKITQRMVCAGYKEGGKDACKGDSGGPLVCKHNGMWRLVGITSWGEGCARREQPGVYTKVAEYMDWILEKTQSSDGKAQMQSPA
smiles,measurement,setting,value
"N=C(N)Nc1ccc(CNC(=O)CNC(=O)[C@@H](CO)NS(=O)(=O)Cc2ccccc2)cc1 [WX-508, benzylsulfonyl-(D)-Ser-Gly-(4-guanidinobenzyl)amide hydrochloride]",Ki,"urokinase (uPA); list of test substances of Example 17, read-out: Ki human uPA",0.034 µM
same,Ki,urokinase (uPA); read-out: Ki uPA,0.034 µM
same,Ki,"urokinase (uPA); summary table, read-out: Ki uPA",0.034 µM
same,Ki,Plasmin [1],> 200 µM
same,Ki,Plasmin [1]; summary table,> 200 µM
same,Ki,Thrombin [2],> 350 µM
same,Ki,Thrombin [2]; summary table,> 350 µM
same,Ki,PK,180 µM
same,Ki,urokinase,0.04 µM
same,Ki,Plasmin [3],> 1000 µM
same,Ki,Thrombin [4],> 1000 µM
same,% amount in the basolateral compartment,Caco-2 cell monolayers; first value column,0.2%
same,% amount in the basolateral compartment,Caco-2 cell monolayers; second value column,0.1%
same,% amount in the basolateral compartment,Caco-2 cell monolayers; third value column,0.7%
same,Caco-2 assay % basolateral,Caco-2 cell monolayers; first value,0.2%
same,Caco-2 assay % basolateral,Caco-2 cell monolayers; second value,0.1%
same,Caco-2 assay % basolateral,Caco-2 cell monolayers; third value,0.7%
same,concentration at 20 min,[5]; [6],300 ng/mL
same,concentration at 20 min,[5]; [7],300 ng/mL
same,concentration at 40 min,[5]; [6],5700 ng/mL
same,concentration at 40 min,[5]; [7],4500 ng/mL
same,concentration at 60 min,[5]; [6],80 ng/mL
same,concentration at 60 min,[5]; [7],90 ng/mL
same,concentration at 20 min,[5]; [8],3500 ng/mL
same,concentration at 40 min,[5]; [8],7500 ng/mL
same,concentration at 40 min,[5]; [9],8300 ng/mL
same,concentration at 60 min,[5]; [8],5400 ng/mL
same,concentration at 60 min,[5]; [9],5800 ng/mL
same,c in the serum 1st analysis,[5]; time of sample collection 0,41.1 µg/mL
same,c in the serum 2nd analysis,[5]; time of sample collection 0,55.5 µg/mL
same,c in the serum 1st analysis,[5]; time of sample collection 10,4.3 µg/mL
same,c in the serum 2nd analysis,[5]; time of sample collection 10,4.7 µg/mL
same,c in the serum 1st analysis,[5]; time of sample collection 30,0.7 µg/mL
same,c in the serum 2nd analysis,[5]; time of sample collection 30,0.2 µg/mL
